Experiment [1] addresses T1, human squalene synthase (hSQS) (Homo sapiens, UniProt P37268).
T1 construct: a double truncated protein lacking residues 31 at the N-terminus and 46 at the C-terminus; six-histidine tag (pET-28a) (N); made in house; host or cells: E. coli BL21 (DE3) RP
T1 sequence (P37268 31-370 limits assumed): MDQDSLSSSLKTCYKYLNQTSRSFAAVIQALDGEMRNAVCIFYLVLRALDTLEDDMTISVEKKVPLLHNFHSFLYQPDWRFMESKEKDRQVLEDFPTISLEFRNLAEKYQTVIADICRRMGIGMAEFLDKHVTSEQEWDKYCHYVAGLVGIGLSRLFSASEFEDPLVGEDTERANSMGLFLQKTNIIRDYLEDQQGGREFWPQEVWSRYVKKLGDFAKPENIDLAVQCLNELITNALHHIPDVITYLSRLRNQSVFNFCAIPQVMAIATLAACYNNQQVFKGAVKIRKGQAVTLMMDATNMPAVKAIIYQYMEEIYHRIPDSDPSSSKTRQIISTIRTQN
Description: Human SQS enzyme inhibition assay. The format is biochemical. The note with it: for CrtM/hSQS selectivity: IC50(hSQS)/IC50(CrtM); for relative CrtM/hSQS selectivity: selectivity of compound/selectivity of 1; for IC50: Table 8; for pIC50 (CrtM) − pIC50 (hSQS): experimental data. As for the experimental part:
The corresponding amplified insert was initially cloned in the vector pGEMT® (Promega). Plasmid was digested with the endonucleases NdeI and BamHI, and the resulting fragment was cloned into the bacterial expression vector pET-28a to give pET28a-HsSQS which was used to transform E. coli BL21 (DE3) RP strain (Novagen) for overexpression.
Bacteria expressing the constructs were cultured in Luria-Bertani medium supplemented with kanamycin (30 μg/ml) and chloramphenicol (34 μg/ml) at 37° C., until the cells reached an OD of 0.4 at 600 nm, and were then induced at 37° C. for 4 h by incubation with 1 mM isopropyl-1-thio-β-D-galactopyranoside. Cells were harvested by centrifugation (10 min, 4000 rpm) and resuspended in 10 ml of lysis/elution buffer (20 mM […], pH 7.4, 10 mM CHAPS, 2 mM MgCl2, 10% glycerol, 10 mM—mercaptoethanol, 500 mM NaCl, 10 mM imidazole, and a protease inhibitor cocktail (Roche), disrupted by sonication, and centrifuged at 16,000 rpm for 30 min. The supernatant ([…]) was then applied to a HiTrap Nickel-Chelating HP column (Amersham Biosciences). Enzyme purification was performed according to the manufacturer's instructions using a Pharmacia FPLC system. Unbound protein was washed off with 50 mM imidazole, then the His6-HsSQS was eluted with 1M imidazole.
SQS activity was based on measuring the conversion of [3H]FPP to [3H]squalene. […] The region of the squalene band was scraped and immersed in Hydrofluor liquid scintillation fluid, and assayed for radioactivity. IC50 values were calculated from the hyperbolic plot of percent of inhibition versus inhibitor concentration, using GraphPad PRISM®.

Experiment [2] relates to staphyloxanthin (STX) biosynthesis in S. aureus. Put plainly: Staphyloxanthin biosynthesis inhibition assay. The class given is cell-based, Staphylococcus aureus. As for the experimental part:
The question next arises: how potent are these compounds in inhibiting STX biosynthesis in S. aureus? We thus treated S. aureus bacteria with serially diluted compounds at 37° C. for 3 days, after which the STX pigment was extracted with methanol. Optical densities were measured at 450 nm and IC50 values for inhibition of pigment formation for each compound were calculated using a standard dose-response curve. The rank ordered IC50 values of the 38 compounds investigated are shown in Table 7 and dose-response curves of representative compounds are shown in FIG. 2.
The S. aureus strain used was the WT clinical isolate (Pig1) (4). S. aureus was cultured in THB (1 mL) in the presence of inhibitor compounds for 72 h, in duplicate. Cells were then centrifuged and washed twice with PBS. STX was extracted with MeOH and the O.D. was determined at 450 nm using a Perkin Elmer MBA 2000 (Norwalk, Conn.) spectrophotometer.

Experiment [3] concerns the target S. aureus CrtM (dehydrosqualene synthase) (Staphylococcus aureus, UniProt A9JQL9). Description: CrtM enzyme inhibition assay.
Where [4] appears, read: Staphylococcus aureus, 72 h, read-out: Staphyloxanthin IC50.
Where [5] appears, read: read-out: CrtM enzyme experimental activity IC50, Table 5.
Where [6] appears, read: read-out: CrtM IC50 values, Table 4.
The mark [7] stands for this setting: Staphylococcus aureus, read-out: IC50 (STX).
Setting [8] is: Staphylococcus aureus, read-out: IC50(STX).
[9] abbreviates: Table 7, S. aureus, 37° C., 3 days, read-out: Staphyloxanthin IC50.

Consider 19 compounds from patent US20120022024A1, “ANTI-BACTERIAL COMPOSITIONS AND METHODS INCLUDING TARGETING VIRULENCE FACTORS OF STAPHYLOCOCCUS AUREUS” (priority 2009, published 2012).

By IC50 is commonly meant the midpoint of a concentration-inhibition curve. One may read the Ki as the equilibrium dissociation constant of an inhibitor or competing ligand from its target. Low readings indicate a stronger hold on the target, high ones a looser hold on the target.

Counter-ions that a name gives are not always drawn. Like-named read-outs stand apart in the source and are kept apart here. Where only a bound is given, the exact number is not on record here.

S. aureus CrtM (dehydrosqualene synthase), sequence (A9JQL9 whole entry): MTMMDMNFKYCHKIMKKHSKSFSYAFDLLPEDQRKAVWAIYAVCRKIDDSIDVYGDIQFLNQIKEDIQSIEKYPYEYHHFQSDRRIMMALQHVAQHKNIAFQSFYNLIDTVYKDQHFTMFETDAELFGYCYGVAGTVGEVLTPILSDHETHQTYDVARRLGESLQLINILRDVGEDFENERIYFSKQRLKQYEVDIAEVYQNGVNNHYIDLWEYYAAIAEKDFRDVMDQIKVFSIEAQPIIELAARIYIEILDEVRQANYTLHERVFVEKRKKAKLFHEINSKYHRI

For the compound `CP(=O)([O-])C(CCCc1ccc(-c2ccccc2)cc1)P(=O)([O-])[O-].[K+].[K+].[K+]` (stereo not drawn) [Compound 4], in experiment [1], the CrtM/hSQS selectivity is listed as 0.014 and the “relative CrtM/hSQS selectivity” value was 4.7.
Turning to `O=P([O-])([O-])C(CCc1cccc(Oc2ccccc2)c1)S(=O)(=O)[O-].[K+].[K+].[K+]` (stereo not drawn) [Compound 15, 1-Phosphono-3-(3-phenoxyphenyl)propylsulfonic acid tripotassium salt], the half-maximal inhibitory concentration (IC50) in experiment [2] (setting [4]) was 20.4 µM; in experiment [1], 0.55 µM; in experiment [3], above 500 µM; in experiment [3] (setting [5]) it was 500 µM. Moreover, in experiment [1], the CrtM/hSQS selectivity is given as 0.0011. In addition, the “pIC50 (CrtM) − pIC50 (hSQS)” value in experiment [1] was −2.96. The “relative CrtM/hSQS selectivity” value in experiment [1] is 0.4. Also, the “CrtM enzyme experimental activity pIC50” value in experiment [3] (Table 5) came out at 3.3.
`O=P([O-])([O-])C(Cc1cccc(Oc2ccccc2)c1)S(=O)(=O)[O-].[K+].[K+].[K+]` (stereo not drawn) [Compound 14, 1-Phosphono-2-(3-phenoxyphenyl)ethylsulfonic acid tripotassium salt]: the half-maximal inhibitory concentration (IC50) in experiment [2] (setting [4]) is 33.9 µM. For the same compound, in experiment [1], the CrtM/hSQS selectivity was 0.0022, the 50% inhibitory concentration (IC50) worked out at 3.7 µM, the “pIC50 (CrtM) − pIC50 (hSQS)” value is given as −2.66 and the “relative CrtM/hSQS selectivity” value was 0.8. In addition, the concentration for half-maximal inhibition (IC50) in experiment [3] (setting [5]) worked out at 1700 µM.
Take `O=P([O-])([O-])C(CCCc1ccc(-c2ccc(C(F)(F)F)cc2)cc1)P(=O)([O-])[O-].[K+].[K+].[K+].[K+]` [Compound 3]: in experiment [1], the CrtM/hSQS selectivity was found to be 0.014, the “pIC50 (CrtM) − pIC50 (hSQS)” value is listed as −1.86 and the “relative CrtM/hSQS selectivity” value is recorded as 4.8. Also, the “CrtM enzyme experimental activity pIC50” value in experiment [3] (Table 5) is 6.74.
As for `O=P(O)(O)C(CCCc1cccc(Oc2ccc(C(F)(F)F)cc2)c1)S(=O)(=O)O` (stereo not drawn) [Compound 7, 1-Phosphono-4-[3-(4-trifluoromethylphenoxy)phenyl]butylsulfonic acid tripotassium salt], the IC50 in experiment [2] (setting [4]) is 0.04 µM; in experiment [3] (setting [6]), 7.2 µM.
Turning to `CCCOc1cccc(-c2ccc(CCCC(P(=O)(O)O)S(=O)(=O)O)cc2)c1` (stereo not drawn) [Compound 13, 1-Phosphono-4-[4-(3-propoxyphenyl)phenyl]butylsulfonic acid tripotassium salt], the concentration for half-maximal inhibition (IC50) in experiment [2] (setting [4]) was 0.49 µM; in experiment [3] (setting [5]), 123 µM.
Take `CC(C)(C)c1ccc(Oc2cccc(CCCC(P(=O)(O)O)S(=O)(=O)O)c2)cc1` (stereo not drawn) [Compound 25, 1-Phosphono-4-[3-(4-tert-butylphenoxy)phenyl]butylsulfonic acid tripotassium salt]: the half-maximal inhibitory concentration (IC50) was 0.021 µM in experiment [2] (setting [4]); 0.021 µM in experiment [2] (setting [7]); 10.5 µM in experiment [3] (read-out: IC50 (CrtM), Table 1).
In the case of `O=C(CP(=O)(O)O)NCCCc1cccc(Oc2ccc(Cl)c(Cl)c2)c1` [compound 886], the IC50 was found to be 0.04 µM in experiment [2] (setting [8]) and 7 µM in experiment [3].
With `O=P([O-])([O-])C(CCCc1ccc(-c2ccc(C(F)(F)F)cc2)cc1)P(=O)([O-])[O-].[K+].[K+].[K+].[K+]` [Compound 3, 4-[4-(4-Trifluoromethylphenyl)phenyl)]butyldiphosphonic acid dipotassium salt], the half-inhibitory concentration (IC50) in experiment [2] (setting [4]) turned out to be 1.1 µM; in experiment [1], 0.003 µM; in experiment [3] (setting [5]), 0.18 µM; in experiment [3] (read-out: IC50 against CrtM), 0.2 µM. For the same compound, the Ki in experiment [3] was around 0.0005 µM.
“1-Phosphono-4-[3-(3,4-difluorophenoxy)phenyl]butylsulfonic acid tripotassium salt [Compound 30]”: the IC50 in experiment [2] (setting [9]) amounted to 0.11 µM; in experiment [3] (setting [6]), 1.7 µM; in experiment [3] (setting [5]), 1.7 µM. For the same compound, in experiment [3] (Table 5), the “CrtM enzyme experimental activity pIC50” value came out at 5.76.
For the compound `O=C(CCCCc1ccc(Oc2ccccc2)cc1)CP(=O)(O)O` [compound 839], the half-maximal inhibitory concentration (IC50) in experiment [2] (setting [8]) turned out to be 28 µM; in experiment [3], 1520 µM.
In the case of “1-Phosphono-4-[3-(3-fluorophenoxy)phenyl]butylsulfonic acid tripotassium salt [Compound 20]”, the IC50 in experiment [2] (setting [9]) amounted to 0.22 µM; in experiment [3] (setting [6]), 2.2 µM; in experiment [3] (setting [5]) it was 2.2 µM. Besides, the “CrtM enzyme experimental activity pIC50” value in experiment [3] (Table 5) is given as 5.66.
`O=P([O-])([O-])C(CCCc1cccc(Oc2ccccc2Cc2ccccc2)c1)S(=O)(=O)[O-].[K+].[K+].[K+]` (stereo not drawn) [Compound 8, 1-Phosphono-4-[3-(2-benzylphenoxy)phenyl]butylsulfonic acid tripotassium salt]: in experiment [2] (setting [4]), the half-inhibitory concentration (IC50) was 0.019 µM. Also, the “CrtM enzyme experimental activity pIC50” value in experiment [3] (Table 5) came to 4.43. Further, the “less active than 1 in CrtM inhibition” value in experiment [3] (fold, versus 1) is reported as around 5 ×.
Regarding `O=P(O)(O)C(CCCc1cccc(Cc2ccccc2)c1)S(=O)(=O)O` (stereo not drawn) [Compound 17, 1-Phosphono-4-(3-benzylphenyl)butylsulfonic acid tripotassium salt], the IC50 in experiment [2] (setting [4]) is 0.17 µM; in experiment [3] (setting [5]), 20.4 µM.
Regarding “1-Phosphono-4-[3-(3,5-dichlorophenoxy)phenyl]butylsulfonic acid tripotassium salt [Compound 34]”, the IC50 in experiment [2] (setting [9]) came to 0.051 µM; in experiment [3] (setting [6]) it was 6.3 µM; in experiment [3] (setting [5]) it was 6.3 µM. In experiment [3] (Table 5), the “CrtM enzyme experimental activity pIC50” value stood at 5.2.
Turning to “1-Phosphono-4-[3-(4-fluorophenoxy)-6-fluoro-phenyl]butylsulfonic acid tripotassium salt [Compound 35]”, the concentration for half-maximal inhibition (IC50) in experiment [2] (setting [9]) was found to be 0.059 µM; in experiment [3] (setting [6]) it was 2.1 µM; in experiment [3] (setting [5]) it was 2.1 µM. Also, the “CrtM enzyme experimental activity pIC50” value in experiment [3] (Table 5) amounted to 5.68.
For “1-Phosphono-4-[3-(4-chlorophenoxy)phenyl]butylsulfonic acid tripotassium salt [Compound 24]”, the IC50 amounted to 0.039 µM in experiment [2] (setting [9]), 2.5 µM in experiment [3] (setting [6]) and 2.5 µM in experiment [3] (setting [5]). Further, the “CrtM enzyme experimental activity pIC50” value in experiment [3] (Table 5) stood at 5.6.
Consider `O=P(O)(O)C(CCCc1ccc(-c2ccc(F)cc2F)cc1)S(=O)(=O)O` (stereo not drawn) [Compound 10, 1-Phosphono-4-[4-(2,4-difluorophenyl)phenyl]butylsulfonic acid tripotassium salt], for which the IC50 in experiment [2] (setting [4]) was 0.18 µM; in experiment [3] (setting [5]), 9.1 µM.
For the compound `CCCc1ccc(Oc2cccc(CCCC(P(=O)([O-])[O-])S(=O)(=O)[O-])c2)cc1.[K+].[K+].[K+]` (stereo not drawn) [Compound 6, 1-Phosphono-4-[3-(4-propylphenoxy)phenyl]butylsulfonic acid tripotassium salt], the IC50 in experiment [2] (setting [4]) was determined as 0.093 µM; in experiment [2] (setting [7]) it was 0.1 µM; in experiment [2] (Staphylococcus aureus, read-out: IC50 for STX biosynthesis), 0.093 µM; in experiment [3] (read-out: IC50 (CrtM), Table 1) it was 2.2 µM. In experiment [3], the Ki was around 0.005 µM. Moreover, the “as active as 1 in CrtM inhibition” value in experiment [3] (fold more active, versus 1) is reported as around 4 ×.
